Data reported in paper PMC10221320.
Where two headings read alike, the source gives them in different places.

How the values were obtained:
[1] = test system: CD-1 mice; test: Acetic-acid-induced writhings (acid-induced muscle pain model); format: in vivo, mouse; conditions: 1 mg/kg i.v.
Description: (§1) The animal studies were performed under the European Commission’s legislation (Directives 86/609/EEC, 2010/63/EU), the National Standard of the Russian Federation “Good Laboratory Practice” (GOST P 53434-2009, Moscow, Russia), and Committee on Ethics of Laboratory Animal Handling № 05/21, 20 September 2021 and 08/21, 30 December 2021 protocols (PIBOC FEB RAS). Adult female CD-1 mice weighing 25 ± 2 g were subjected to a 12 h light–dark cycle at room temperature and with ad libitum access to food and water. There were seven or eight individuals in each group.
Three groups of animals were treated with peptides at doses of 0.01, 0.1 and 1 mg/kg (intravenously) 15 min before an injection of 300 μL of a 0.7% acetic acid solution. The control animal group received an identical volume of saline. The positive control group received intravenously a dose 1 mg/kg of diclofenac (Hemofarm A.D., Vršac, Serbia), a commercial drug of the NSAID group. Fifteen minutes immediately after acid administration, the number of writhings and the writhing time (time in a spasmodic state) were counted.

[2] = test system: CD-1 mice; test: Hot plate test; format: in vivo, mouse; conditions: 52 °C
Description: as §1
Thermal analgesia was tested with a Hot Plate Analgesia Meter (IITC Life Science Inc., Woodland Hills, CA, USA). Measurements were carried out 15 min after the intravenous injection of peptides at doses of 0.1 and 1 mg/kg. The control animals received 300 µL of sterile saline. Metamizole (Pharmstandard, Russia) was used as a positive control administrated intraperitoneally at a dose of 500 mg/kg 30 min before testing. Animals were placed individually on the preheated surface of a plate (up to 52 °C), and nociceptive reactions, withdrawal, or licking of the front and hind legs were recorded.

[3] = test system: CD-1 mice; test: Carrageenan-induced paw edema; format: in vivo, mouse; conditions: 1 mg/kg
Description: as §1
Three groups of animals were treated with peptides at doses of 0.01, 0.1 and 1 mg/kg (intravenously) 30 min before the induction of inflammation. The control animal group received an identical volume of saline. The positive control group received diclofenac (Hemofarm A.D., Vršac, Serbia) at a dose of 1 mg/kg. The edema was induced by a 20 µL injection of 1.5% solution of λ-carrageenan (Sigma Aldrich, St. Louis, MO, USA) in the hind paw pad. The resulting edema was measured after 1, 2, 4 and 24 h using a plethysmometer (Ugo Basile, Gemonio (VA), Italy). The anti-inflammatory threshold was estimated as a decrease in the paw volume and volume growth index (%), calculated using the formula: Volume Growth Index (%) = [(VC − Vi)/Vi] × 100, (1), where VC is the volume of the paw after the introduction of carrageenan and Vi is the volume of the paw before the introduction of carrageenan.

[4] = test system: ASIC3; conditions: cited from earlier work
Source text: Some non-selective, low-molecular ligands of ASIC channels, acting at micromolar concentrations, are enabled for clinical medicine and veterinary procedure: local anesthetics (lidocaine and tetracaine), nonsteroidal anti-inflammatory drugs (NSAIDs) (ibuprofen, aspirin, and diclofenac), potassium-sparing diuretic amiloride and the antibacterial/antiparasitic drug, diminazene. […] Preclinical and clinical stu ... || Venom-derived toxins affecting ASICs may cause pain or, on the contrary, have analgesic, anti-inflammatory or neuroprotective effects. The first identified peptide agonist of ASIC channels, from the venom of the coral snake Micrurus tener tener, is a complex of MitTxα (Kunitz fold) and MitTxβ (phospholipase A2-like protein) subunits.

[5] = test system: ASICs; conditions: ref [45]; cited from earlier work
[6] = test system: ASIC1a, ASIC1b, ASIC2a and ASIC3 channels; conditions: ref [7],[13]; read-out: IC50, inhibition of ASIC1a, ASIC1b, ASIC2a and ASIC3 channels; cited from earlier work
Source text: Some non-selective, low-molecular ligands of ASIC channels, acting at micromolar concentrations, are enabled for clinical medicine and veterinary procedure: local anesthetics (lidocaine and tetracaine), nonsteroidal anti-inflammatory drugs (NSAIDs) (ibuprofen, aspirin, and diclofenac), potassium-sparing diuretic amiloride and the antibacterial/antiparasitic drug, diminazene. […] Preclinical and clinical stu ...

[7] = test system: ASIC1b; conditions: ref [36]; cited from earlier work
[8] = test system: ASIC2a; conditions: ref [36]; cited from earlier work
[9] = cited from earlier work
Source text: (§2) Venom-derived toxins affecting ASICs may cause pain or, on the contrary, have analgesic, anti-inflammatory or neuroprotective effects. The first identified peptide agonist of ASIC channels, from the venom of the coral snake Micrurus tener tener, is a complex of MitTxα (Kunitz fold) and MitTxβ (phospholipase A2-like protein) subunits.

[10] = test system: hERG channels; design: method as in PMID 29134638; conditions: ref [36]; cited from earlier work
[11] = test system: NaV1.8; design: method as in PMID 29134638; conditions: ref [36]; cited from earlier work
[12] = 1 mg/kg intramuscularly; ref [34]; cited from earlier work
Source text: (§3) Contradictory results concerning the involvement of ASIC1a channels in the antidepressant activity and the in vivo effects of ASIC1a inhibitors, namely tarantula toxin, PcTx1, have been published earlier. Thus, in a number of experiments, it was shown that ASI ...

[13] = ref [34]; cited from earlier work
[14] = eight hours after a stroke; ref [18],[19]; cited from earlier work
[15] = test system: ASIC1a; conditions: ref [20]; cited from earlier work
Source text: as §2

[16] = test system: rats; conditions: ref [53]; cited from earlier work
Source text: as §3

In the case of `O=C(O)Cc1ccccc1Nc1c(Cl)cccc1Cl` [Diclofenac], the “effect on writhings, positive control” value [1] is reported as “reduced the number of writhings”, the “analgesic effect in hot plate test” value ([2]; peptides 0.1 and 1 mg/kg i.v.) is reported as “did not affect the pain sensitivity in this test” and the “anti-inflammatory effect, positive control” value [3] is reported as “reduced inflammation more rapidly (1–24 h range)”. The IC50 ([4]; ref [45], read-out: IC50, sustained current component of ASIC3) was 92000 ± 19000 nM and the “inflammation-induced expression of ASICs” value [5] was “decreases the inflammation-induced expression of ASICs”.

For `Cc1c(N(C)CS(=O)(=O)O)c(=O)n(-c2ccccc2)n1C` [Metamizole sodium], the “increase in latent time of licking both front and hind paws” value ([2]; 500 mg/kg i.p. 30 min before testing) was “more than 1.5 times”.

In the case of `N=C(N)NC(=O)c1nc(Cl)c(N)nc1N` [amiloride], the IC50 [6] is given as 5000 to 100000 nM.

In the case of APETx2, the IC50 ([4]; ref [20], read-out: IC50, ASIC3) is given as 37 to 63 nM, the “effect on ASIC1b” value [7] is given as “potentiation” and the “effect on ASIC2a” value [8] is given as “potentiation”. For the same molecule, the effect on edema ([9]; ref [34]) was “partially reduces edema”, the hERG inhibition [10] was “ability to inhibit hERG channels” and the NaV1.8 inhibition [11] was “inhibition”. The “locomotion and CNS-mediated behavior” value [12] was “did not impair locomotion and the CNS-mediated behavior in the open field test” and the antihyperalgesia [13] was “induces antihyperalgesia in an acid-induced muscle pain model”.

For “PcTx1: ICK-peptide from the tarantula Psalmopoeus cambridgei”, the neuroprotection after stroke [14] is listed as “ineffective”, the antinociceptive effect ([9]; ref [23]) is listed as “strong antinociceptive effect in the acute and neuropathic pain models” and the IC50 [15] is listed as 0.3 to 3.7 nM. The anxiety levels [16] was “increases anxiety levels in rats”.
